Results on 4 molecules are retold here after US20060148730A1, “Method of treating tuberculosis” (priority 2003, published 2006).

SMILES strings stand for the structures. In brackets after ≈: the same amount, converted by molar mass. Entries after “also recorded” stand apart in the source; their conditions may differ. Where two headings read alike, the source gives them in different places.

The subject of data set [1] is M. tuberculosis H37Rv. To be noted: cited from earlier work.
Data set [2] relates to M. tuberculosis. To be noted: literature (Luna-Herrera 1995; Truffot-Pernot 1995); cited from earlier work.
In data set [3] the test system is M. tuberculosis H37Rv. Put plainly: MIC vs. M. tuberculosis H37Rv, microplate Alamar Blue assay (MABA). In kind it is cell-based. To be noted: for enhancement in potency of macrolide over counterpart ketolide: MIC ratio ketolide/macrolide; for anti-TB activity / MIC in words: result in words. In general terms: Alamar Blue is a resazurin reagent that responds to reducing activity.

Data set [4] deals with VERO cells.
The test system of data set [5] is VERO cells. Put plainly: Cytotoxicity against VERO cells (MTS, 72 hours). To be noted: for IC50: Chlorocebus sabaeus, Vero.
Data set [6] deals with M. tuberculosis Erdman. Format: in vivo, BALB/c mice.
The test system of data set [7] is J774.1 macrophage cell line. As to the kind of experiment: Cytotoxicity against J774.1 macrophage cell line. Conditions: Mus musculus, J774.1; Table 1a; toxicity; read-out: J774 IC50. Format: cell-based, murine.
A short description of data set [8]: Overt toxicity in mice, escalating 5-day dosing cycles. In kind it is in vivo, Balb/C mice. Conditions: once daily, 5-day cycles, sequentially 200, 300, 400, 500 mg/kg. On the procedure: Prior to assessing in vivo efficacy, RU66252 and RU69874 were administered to pairs of female Balb/C mice once daily for 5-day cycles, and observed for overt signs of toxicity (e.g., weight loss, ruffled fur, and huddling), after which the mice were rested for 1 or 2 days. Then the dosage was increased for another 5-day cycle. Overall, the same mice received sequentially for 5 days: 200, 300, 400, and 500 mg/kg.

On to `NNC(=O)c1ccncc1` [Isoniazid], for which, in data set [1], the “expected MIC range of positive quality control compound” value is 0.025 to 0.1 µg/mL.
As for `CC[C@H]1OC(=O)[C@H](C)[C@@H](O[C@H]2C[C@@](C)(OC)[C@@H](O)[C@H](C)O2)[C@H](C)[C@@H](O[C@@H]2O[C@H](C)C[C@H](N(C)C)[C@H]2O)[C@](C)(OC)C[C@@H](C)C(=O)[C@H](C)[C@@H](O)[C@]1(C)O` [Clarithromycin, reference compound], the “activity in mouse models” value in data set [2] is “marginal and nil”. Besides, in data set [3], the “enhancement in potency of macrolide over counterpart ketolide” value stood at 16 fold. Moreover, in data set [3] (Table 2a, 11,12-diols, anti-TB activity, read-out: MIC), the MIC is listed as 8 µM (≈ 5.98 µg/mL).
Take `CCCCCCCCCCN1CCCC(O/N=C2\[C@H](C)C[C@@](C)(OC)[C@H](O[C@@H]3O[C@H](C)C[C@H](N(C)C)[C@H]3O)[C@@H](C)C(=O)[C@@H](C)C(=O)O[C@H](CC)[C@@](C)(O)[C@H](O)[C@H]2C)C1` (some centres unmarked) [RU60887]: the “in vitro toxicity / cytotoxicity in words” value in data set [4] was “comparable to clarithromycin”. For the same molecule, the “anti-TB activity / MIC in words” value in data set [3] is “most potent of the tested 9-oxime compounds; also recorded: very low”. Moreover, the “selectivity index (SI), VERO cells” value in data set [5] was determined as 221.
Turning to `CC[C@H]1OC(=O)[C@H](C)C(OC2CC(C)(OC)[C@@H](O)[C@H](C)O2)[C@H](C)[C@@H](O[C@@H]2O[C@H](C)C[C@H](N(C)C)[C@H]2O)[C@](C)(OC)C[C@@H](C)C(=O)[C@H](C)[C@H]2N(NCCCc3ccnc4ccccc34)C(=O)O[C@]12C` (some centres unmarked) [RU66252], the “activity against M. tuberculosis in the acute phase of infection” value in data set [6] ([…], 100 and 200 mg/kg qd, untreated controls abnormally low) is on record as “dose-dependent activity”. The “colonies on 10-2 dilution plates of lung homogenates” value in data set [6] (treated mouse lung homogenates) is reported as “no colonies”. Besides, the IC50 in data set [7] was found to be 16.1 µM; in data set [5] (read-out: Vero IC50) it was 24.9 µM; in data set [5] (read-out: toxicity based on VERO cells), 25 µM. In data set [3], the “enhancement in potency of macrolide over counterpart ketolide” value stood at 16 fold. For the same molecule, the MIC in data set [3] (Mycobacterium tuberculosis, H37RV, Table 1a, 11,12-carbamate derivatives, anti-TB activity, read-out: MIC) was 0.25 µM (≈ 0.239 µg/mL); in data set [3] (Mycobacterium tuberculosis, H37RV, Table 3, parallel-synthesis carbazate library products, SPE purified, read-out: MIC) it was 9 µM (≈ 8.61 µg/mL); in data set [3] (Mycobacterium tuberculosis, H37RV, follow-up assays, read-out: MIC vs. M. tuberculosis in follow-up assays), about 9 µM (≈ 8.61 µg/mL); in data set [3] (Mycobacterium tuberculosis, H37RV, read-out: minimum inhibitory concentration (MIC) against M. tuberculosis) it was 0.25 µM (≈ 0.239 µg/mL). In addition, the “anti-TB activity / MIC in words” value in data set [3] was “very low”. Besides, the “in vitro toxicity / cytotoxicity in words” value in data set [5] (result in words) is “comparable to clarithromycin”. Further, the “signs of overt toxicity (weight loss, ruffled fur, huddling)” value in data set [8] was “No signs of overt toxicity”.
